The record followed here is US12102644B2, “Compounds and methods of promoting myelination” (Case Western Reserve University, priority 2019, dated 2024).

Series [1] concerns the target T1, rat CYP51 (Rattus norvegicus, UniProt Q64654).
T1 sequence (Q64654 1-503): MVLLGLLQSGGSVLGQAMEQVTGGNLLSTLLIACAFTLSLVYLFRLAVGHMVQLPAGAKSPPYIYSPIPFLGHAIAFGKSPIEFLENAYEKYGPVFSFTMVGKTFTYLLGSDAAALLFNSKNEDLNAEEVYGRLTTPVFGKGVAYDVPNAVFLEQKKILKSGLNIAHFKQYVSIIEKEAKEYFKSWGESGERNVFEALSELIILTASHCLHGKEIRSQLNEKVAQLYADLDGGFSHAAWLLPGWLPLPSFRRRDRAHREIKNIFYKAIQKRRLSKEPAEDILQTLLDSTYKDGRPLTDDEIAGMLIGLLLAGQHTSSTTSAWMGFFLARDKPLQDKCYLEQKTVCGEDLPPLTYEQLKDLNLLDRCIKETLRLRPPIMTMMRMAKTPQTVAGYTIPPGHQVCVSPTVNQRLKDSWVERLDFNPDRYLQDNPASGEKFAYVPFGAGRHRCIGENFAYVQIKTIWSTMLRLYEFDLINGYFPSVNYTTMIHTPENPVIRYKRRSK
The settings on record: rat CYP51 enzymatic activity.

For series [2], the system named is mouse epiblast stem cell-derived OPCs. In words: In vitro OPC differentiation assay (percentage of MBP+ oligodendrocytes, high-content imaging). Type of series: cell-based. The settings on record: for formation of MBP+ oligodendrocytes in combination with ketoconazole: co-treatment with ketoconazole 2.5 μM. The procedure: To rigorously assess effects of small molecule and genetic treatments on OPCs, all treatments were assayed in two batches of epiblast stem cell-derived OPCs, and key results were confirmed using mouse primary OPCs. OPCs were generated from two separate EpiSC lines, EpiSC5 (giving rise to OPC-5 OPCs) and 12901 (giving rise to OPC-1 OPCs). EpiSC-derived OPCs were obtained using in vitro differentiation protocols and culture conditions described previously. To ensure uniformity throughout all in vitro screening experiments, EpiSC-derived OPCs were sorted to purity by fluorescence activated cell sorting at passage five with conjugated CD 140a-APC (eBioscience, 17-1401; 1:80) and NG2-AF488 (Millipore, AB[…]; 1:100) antibodies. Sorted batches of OPCs were expanded and frozen down in aliquots. OPCs were thawed into growth conditions for one passage before use in further assays. Cultures were regularly tested and shown to be mycoplasma free. EpiSC-derived OPCs were grown and expanded in poly-ornithine (PO) and laminin-coated flasks with growth medium (DMEM/F12 supplemented with N2-MAX (R&D Systems), B-27 (ThermoFisher), GlutaMax (Gibco), FGF2 ([…], R&D systems, 233-FB-025) and PDGF-AA ([…], R&D systems, 233-AA-050) before harvesting for plating. The cells were seeded onto poly-D-[…]-well CellCarrier plates (PerkinElmer) coated with laminin (Sigma, L2020; 15 μg/ml) using multi-channel pipet. For the experiment, 800,000 cells/mL stock in differentiation medium (DMEM/F12 supplemented with N2-MAX and B-27) was prepared and stored on ice for 2 h. Then, 40,000 cells were seeded per well in differentiation medium and allowed to attach for 30 min before addition of drug. For dose-response testing of all molecules except sterols, a 1000× compound stock in dimethyl sulphoxide (DMSO) was added to assay plates with 0.1 μL solid pin multi-blot replicators (V & P Scientific; VP 409), resulting in a final primary screening concentration of 1×. Sterols were added to cells as an ethanol solution (0.2% final ethanol concentration). Positive control wells (ketoconazole, 2.5 μM) and DMSO vehicle controls were included in each assay plate. Cells were incubated under standard conditions (37° C., 5% CO2) for 3 days and fixed with 4% paraformaldehyde (PFA) in phosphate buffered saline (PBS) for 20 min. Fixed plates were washed with PBS (200 μL per well) twice, permeabilized with 0.1% Triton X-100 and blocked with 10% donkey serum (v/v) in PBS for 40 min. Then, cells were labelled with MBP antibodies (Abcam, ab7349; 1:200) for 16 h at 4° C. followed by detection with Alexa Fluor conjugated secondary antibodies (1:500) for 45 min. Nuclei were visualized by DAPI staining (Sigma; 1 μg/ml). During washing steps, PBS was added using a multi-channel pipet and aspiration was performed using Biotek EL406 washer dispenser (Biotek) equipped with a 96-well aspiration manifold. Plates were imaged on the Operetta High Content Imaging and Analysis system (PerkinElmer) and a set of 6 fields captured from each well resulting in an average of 1200 cells being scored per well. Analysis (PerkinElmer Harmony and Columbus software) began by identifying intact nuclei stained by DAPI; that is, those traced nuclei that were larger than 300 μm^2 in surface area. Each traced nucleus region was then expanded by 50% and cross-referenced with the […] (MBP) stain to identify oligodendrocyte nuclei, and from this the percentage of oligodendrocytes was calculated. In some experiments, the total process length of MBP^+ oligodendrocytes was calculated as previously described.

The target of another series is T2, EBP (Mus musculus, UniProt P70245).
T2 construct: active EBP was obtained from mouse microsomes; from tissue
T2 sequence (P70245 1-230): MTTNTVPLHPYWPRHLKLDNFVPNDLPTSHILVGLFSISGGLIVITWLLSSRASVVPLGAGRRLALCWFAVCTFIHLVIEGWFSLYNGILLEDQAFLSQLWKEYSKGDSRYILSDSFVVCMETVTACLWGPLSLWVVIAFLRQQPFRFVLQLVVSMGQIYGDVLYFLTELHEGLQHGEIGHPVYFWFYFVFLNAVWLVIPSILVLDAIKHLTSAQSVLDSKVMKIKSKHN
The series can be described thus: EBP enzymatic assay (GC/MS). Type of series: biochemical. The settings on record: small molecules 10 μM, zymostenol 25 μM, 2 h.

Series [3] deals with sterol levels in OPCs (cholesterol biosynthesis pathway). The series can be described thus: GC/MS-based sterol profiling in OPCs. Type of series: cell-based, mouse.
For series [4], the target named is T1, rat CYP51. The series can be described thus: biochemical.
[5] abbreviates: 72 h, differentiation-permissive conditions.

“Also recorded” adds a separate entry of the source. Read-outs that look alike come from different tables or passages of the source.

For the molecule `CC(=O)N1CCN(c2ccc(OC[C@@H]3CO[C@](Cn4ccnc4)(c4ccc(Cl)cc4Cl)O3)cc2)CC1` (stereo in doubt) [R-trans-Ketoconazole], the “inhibition of mammalian CYP51 in vitro” value against rat CYP51 [1] is reported as “strikingly less effective at inhibiting mammalian CYP51”.
As for `CC(C)CCC[C@@H](C)[C@H]1CC[C@H]2C3=C(CC[C@]12C)[C@@]1(C)CC[C@H](O)CC1=CC3` [8,9-dehydrocholesterol], in series [2] (setting [5]), the “formation of MBP+ oligodendrocytes from OPCs” value (from here on “formation … from OPCs”) is “robustly enhanced oligodendrocyte formation”.
The same measure, in the same setting: under `CC(C)CCC[C@@H](C)[C@H]1CC=C2C3=C(CC[C@@]21C)[C@@]1(C)CC[C@H](O)C[C@@H]1CC3` [14-dehydrozymostenol, cholesta-8,14-dien-j-ol] stands “enhanced the formation of MBP^+ oligodendrocytes”.
In the case of `Cc1cc(C)c(CNC(=O)c2cc(-c3ccc(CN4CCOCC4)cc3)cc3c2cnn3C2CCCC2)c(=O)[nH]1` [EPZ005687], the “inhibition of EBP enzymatic activity” value against EBP is “directly inhibiting EBP enzymatic activity”. Further, the “formation … from OPCs” value in series [2] (setting [5]) is on record as “robustly enhanced oligodendrocyte formation”. In series [3] (24 h treatment), the “accumulation of sterol intermediates in OPCs (enzyme inhibition in OPCs, e.g. EBP)” value was “uniquely caused accumulation of zymosterol and zymostenol in OPCs”.
On to `CC(C)=CCC[C@@H](C)[C@H]1CC=C2C3=C(CC[C@@]21C)[C@@]1(C)CC[C@H](O)C(C)(C)[C@@H]1CC3` [FF-MAS, 4,4-dimethyl-5α-cholesta-8,14,24-trien-3β-ol], for which the “formation … from OPCs” value in series [2] (setting [5]) is on record as “enhanced oligodendrocyte formation; also recorded: maximally potent enhancers of oligodendrocyte formation among the 8,9-unsaturated sterols tested”.
As for `CC(C)CCC[C@@H](C)[C@H]1CC=C2C3=C(CC[C@@]21C)[C@@]1(C)CC[C@H](O)C(C)(C)[C@@H]1CC3` [MAS-412], in series [2] (setting [5]), the “formation … from OPCs” value was “enhanced oligodendrocyte formation; also recorded: optimal efficacy and potency among all canonical cholesterol biosynthesis intermediates evaluated”.
In the case of `CC(C)CCC[C@@H](C)[C@H]1CC[C@H]2C3=C(CC[C@]12C)[C@@]1(C)CC[C@H](O)C(C)(C)[C@@H]1CC3` [MAS-414], in series [2] (setting [5]), the “formation … from OPCs” value was “enhanced oligodendrocyte formation; also recorded: optimal efficacy and potency among all canonical cholesterol biosynthesis intermediates evaluated”.
On to `C=CCN(C)CCCCCCOc1ccc(C(=O)c2ccc(Br)cc2)c(F)c1` [Ro 48-8071], for which, in series [2] (setting [5]), the “formation … from OPCs” value is reported as “little impact”. In series [2] (3 d differentiation assay), the “total cell number (DAPI+ nuclei)” value is “little impact”. The “formation of MBP+ oligodendrocytes in combination with ketoconazole” value (“formation … with ketoconazole” below) in series [2] (72 h) is on record as “completely suppressed ketoconazole's pro-myelinating effects”. For the same molecule, the “reduction in lanosterol levels relative to ketoconazole alone” value in series [3] (co-treatment ketoconazole 2.5 μM + Ro 48-8071 11 nM, 24 h) amounted to 90%.
For `CC(C)=CCC[C@@H](C)[C@H]1CC[C@H]2C3=C(CC[C@]12C)[C@@]1(C)CC[C@H](O)C(C)(C)C1CC3` (stereo partly drawn) [T-MAS], the “formation … from OPCs” value in series [2] (setting [5]) is listed as “enhanced oligodendrocyte formation”.
Regarding `CN1[C@@H]2CC[C@H]1C[C@@H](OC(c1ccccc1)c1ccccc1)C2` [benztropine, Benztropine], the “inhibition of EBP enzymatic activity” value against EBP is “clear inhibition”. Further, the “formation … with ketoconazole” value in series [2] (72 h) is reported as “did not enhance differentiation above levels seen for ketoconazole alone”. For the same molecule, in series [3] (24 h treatment), the “accumulation of sterol intermediates in OPCs (enzyme inhibition in OPCs, e.g. EBP)” value was “induced accumulation of zymostenol and zymosterol and decreased basal sterol levels”.
On to `C=C(c1ccc(C(=O)O)cc1)c1cc2c(cc1C)C(C)(C)CCC2(C)C` [bexarotene, Bexarotene], for which the “accumulation of sterol intermediates in OPCs (enzyme inhibition in OPCs, e.g. EBP)” value in series [3] (24 h treatment) is reported as “minimal effects on sterol levels”.
For `CC(C)CCC[C@@H](C)[C@H]1CC[C@H]2[C@@H]3CC=C4C[C@@H](O)CC[C@]4(C)[C@H]3CC[C@]12C` [cholesterol, Cholesterol], the “formation … from OPCs” value in series [2] (setting [5]) is given as “ineffective; also recorded: had no effect on OPCs”.
`CN1CCC[C@@H]1CCO[C@](C)(c1ccccc1)c1ccc(Cl)cc1` [clemastine, Clemastine]: the “formation … with ketoconazole” value in series [2] (72 h) is listed as “did not enhance differentiation above levels seen for ketoconazole alone”.
Turning to `Clc1ccccc1C(c1ccccc1)(c1ccccc1)n1ccnc1` [clotrimazole, Clotrimazole], at rat CYP51 [4], the IC50 was 300 to 700 nM.
On to `C[C@]12CC[C@@H]3c4ccc(O)cc4C[C@@H](CCCCCCCCC[S+]([O-])CCCC(F)(F)C(F)(F)F)[C@H]3[C@@H]1CC[C@@H]2O` (stereo partly drawn) [fulvestrant, Fulvestrant], for which the “sterol profile in OPCs at the screening dose (enzyme targeted)” value in series [3] (2 μM, 24 h) was “targeted CYP51”.
As for `OCCOCCN1CCN(C(c2ccccc2)c2ccc(Cl)cc2)CC1` (stereo not drawn) [hydroxyzine, Hydroxyzine], the “inhibition of EBP enzymatic activity” value at EBP is “directly inhibiting EBP enzymatic activity”.
As for `CC(C)=CCC[C@@H](C)[C@H]1CC[C@@]2(C)C3=C(CC[C@]12C)[C@@]1(C)CC[C@H](O)C(C)(C)[C@@H]1CC3` [lanosterol, Lanosterol], in series [2] (setting [5]), the “formation … from OPCs” value is “enhanced formation of MBP^+ oligodendrocytes in a dose-responsive fashion”.
Turning to `N[C@@H](Cc1cc(I)c(Oc2ccc(O)c(I)c2)c(I)c1)C(=O)O` [liothyronine, Liothyronine], the “formation of oligodendrocytes in combination with liothyronine” value in series [2] (liothyronine 3 μM combined with sterol-modulating treatments, 72 h) is recorded as “additive effects on oligodendrocyte formation”. Moreover, in series [3], the “accumulation of sterol intermediates in OPCs (enzyme inhibition in OPCs, e.g. EBP)” value is “minimal effects on sterol levels”.
With `OCCOc1ccc(/C(=C(/CCCl)c2ccccc2)c2ccccc2)cc1` [ospemifine, Ospemifene], the “formation … from OPCs” value in series [2] is listed as “had no effect on OPC differentiation”. In addition, in series [3], the “accumulation of sterol intermediates in OPCs (enzyme inhibition in OPCs, e.g. EBP)” value is “did not inhibit EBP”.
In the case of `CN(C)CCOc1ccc(/C(=C(/CCCl)c2ccccc2)c2ccccc2)cc1` [toremifene, Toremifene], the “formation … from OPCs” value in series [2] (setting [5]) was “enhanced MBP^+ oligodendrocyte generation over a wide dose range”. Also, the “accumulation of sterol intermediates in OPCs (enzyme inhibition in OPCs, e.g. EBP)” value in series [3] (24 h treatment) is “inhibited EBP”.
`CC(C)CCC[C@@H](C)[C@H]1CC[C@H]2C3=C(CC[C@]12C)[C@@]1(C)CC[C@H](O)C[C@@H]1CC3` [zymostenol, Zymostenol]: the “formation … from OPCs” value in series [2] (setting [5]) is “enhanced the formation of MBP^+ oligodendrocytes; also recorded: enhanced oligodendrocyte formation”.
methyl-β-cyclodextrin: the “formation … from OPCs” value in series [2] (setting [5]) is recorded as “had no effect on oligodendrocyte formation”. The “cholesterol levels in OPCs” value in series [3] (methyl β-cyclodextrin 1 mM for 30 min) is “reductions in cholesterol levels comparable to pathway inhibitor treatment”.
